The values below come from PubChem BioAssay AID1996.

Converted amounts (≈) assume the structure as drawn.

For this data set the following is noted: buffer; pH 7.4; 200.0 µM.
`COc1ccc2oc(=O)c(C(=O)NCc3ccc(F)cc3)cc2c1`: the kinetic solubility was 0.8 µg/mL (≈ 2.44 µM).
`O=C(COc1ncnc2cc(Cl)ccc12)c1ccccc1` came in with a solubility (kinetic) of 3.2 µg/mL (≈ 10.7 µM). This solubility kinetic lies about 4-fold higher than the previous one.
For `CCN1/C(=C/C(=S)Nc2ccccc2)Sc2ccccc21` the value was 6.7 µg/mL (≈ 21.4 µM).
With `CCc1ccc(NC(=O)Cn2cnc3c(=O)n(C)c(=O)n(C)c32)cc1` the figure was 18.6 µg/mL (≈ 54.5 µM); with `Cc1ccc(C(=O)OCC(=O)Nc2cccc(Cl)c2C)c(O)c1`, < 0.7 µg/mL; with `CCCCNc1nc(Cl)nc(Nc2ccc(C)cc2)n1`, 1.7 µg/mL (≈ 5.83 µM).
With `COc1cc(CCC(=O)NCc2ccc(F)cc2)cc(OC)c1OC`, the kinetic solubility is > 52.1 µg/mL.
For `CN(C)c1ccc([N+](=O)[O-])cc1C(=O)NCC(c1ccco1)N(C)C` (stereo unspecified) the value was 47.7 µg/mL (≈ 138 µM); for `Cc1ccccc1Oc1ncnc(N)c1[N+](=O)[O-]`, 9.8 µg/mL (≈ 39.8 µM).
For `CCCNCC(=O)Nc1cccc(S(=O)(=O)NC2=NCCCCC2)c1.O=C(O)C(=O)O` the value was > 68.5 µg/mL; for `Cc1ccc(NC(=O)c2ccc(Cl)c(S(=O)(=O)NCc3ccco3)c2)c(O)c1`, 7.3 µg/mL (≈ 17.3 µM); for `CCOC(=O)c1ccc(Nc2cc(C)nc(-c3ccccc3)n2)cc1`, < 0.2 µg/mL.
The compound `CN(Cc1ccccc1)C(=O)COC(=O)CCC(=O)c1ccc(Cl)cc1` registered a solubility (kinetic) of 9.6 µg/mL (≈ 25.7 µM).
With `CC(=O)Nc1ccc(C(=O)NCC(c2ccco2)N(C)C)cc1` (stereo unspecified) the figure was 44.7 µg/mL (≈ 142 µM); with `O=C(O)/C=C/C(=O)Nc1cc(F)ccc1F`, > 34.1 µg/mL.
With `CCOc1ccc(C2=CSC3=NCCN23)cc1` the figure was 22.9 µg/mL (≈ 93 µM).
For `COc1cccc(CNc2ccc3c(c2)nc(C)n3C)c1OC` the value was 44.8 µg/mL (≈ 144 µM); for `CC(=O)c1ccc(NC(=O)COC(=O)Cc2ccsc2)cc1`, > 47.6 µg/mL; for `COC(=O)c1sccc1NC(=S)Nc1ccc(F)cc1F`, 42 µg/mL (≈ 128 µM).
In the case of `COc1ccc(OC)c(Nc2nc(NCc3ccco3)nc(N)c2[N+](=O)[O-])c1`, the kinetic solubility was < 0.1 µg/mL.
For `CCC(=O)Nc1ccc(OCc2nc3ccccc3s2)cc1` the value was 2.3 µg/mL (≈ 7.36 µM); for `CC(C)(C)c1ccc(Oc2ccc(N)cn2)cc1`, > 36.3 µg/mL.
For `CCCCNS(=O)(=O)c1ccc2nc(SCC(N)=O)[nH]c2c1`, the kinetic solubility was > 51.4 µg/mL.
With `CC(C)N(Cc1nc(-c2ccccc2)no1)C(=O)C(Cl)(Cl)Cl` the figure was 5.9 µg/mL (≈ 16.3 µM).
For `CCOC(=O)C1=C(C)NC(C)=C(C(=O)OCC)C1C(=O)OCC(=O)NCc1ccc(F)cc1` the value was > 69.4 µg/mL; for `O=[N+]([O-])c1ccc(CSc2ccccn2)cc1`, 15.2 µg/mL (≈ 61.7 µM); for `CCNC(=O)COC(=O)c1[nH]c(C)c(C(=O)OC)c1C`, > 42.3 µg/mL.
In turn, `CCCC(C)NC(=O)C1c2ccccc2Oc2ccccc21` (stereo unspecified) showed a solubility (kinetic) of 1.2 µg/mL (≈ 4.06 µM).
Consider `Cc1cccc(NS(=O)(=O)c2ccc3oc(=O)ccc3c2)c1C`, for which the solubility (kinetic) came out at 44.8 µg/mL (≈ 136 µM).
For `O=c1[nH]c(=O)n(Cc2ccco2)c(O)c1C=NCCN1CCNCC1` the value was > 52.1 µg/mL; for `Cc1ccc(C(=O)N2CCN(c3ccccn3)CC2)cc1Cl`, > 47.4 µg/mL; for `COCCCNC(=O)COc1ccc2oc3c(c2c1)CCCC3`, 44.2 µg/mL (≈ 139 µM).
With `Cc1onc(-c2c(Cl)cccc2Cl)c1C(=O)N1CCCCC1` the figure was > 50.9 µg/mL.
For `CC(C)(C)c1ccc(/C=C/C(=O)NCCCn2ccnc2)cc1` the value was 46.1 µg/mL (≈ 148 µM); for `Cc1ccc(NC(=O)N2CCCC2C(=O)NCC2CCCO2)cc1` (stereo unspecified), > 49.7 µg/mL.
`CN(C(=O)CN1C(=O)c2ccc([N+](=O)[O-])cc2C1=O)C1CCCCC1`: the kinetic solubility was > 51.8 µg/mL.
`O=S(=O)(NCc1ccccc1)c1cccc2nsnc12` came in with a kinetic solubility of 44.2 µg/mL (≈ 145 µM).
For `CCCCCc1c(O)nc(SCCN(C)C)[nH]c1=O.Cl` the value was > 48.3 µg/mL; for `CC1=NN(C(=O)CCc2ccccc2)C(O)(c2ccncc2)C1` (stereo unspecified), > 46.4 µg/mL.
For `CC(C)(C)NS(=O)(=O)c1ccc2[nH]c3c(c2c1)CCCCC3` the value was 8.8 µg/mL (≈ 27.5 µM); for `COc1cc(CO)ccc1OCc1ccc(Cl)nc1`, > 42 µg/mL; for `O=C(NCCN1CCOCC1)c1cc2ccccc2oc1=O`, > 45.3 µg/mL.
`CN(CCO)CCOCCOc1cccc2ccccc12` showed a kinetic solubility of 34.6 µg/mL (≈ 120 µM).
With `COc1ccc(CC(=O)NC2CC(C)(C)NC(C)(C)C2)cc1OC.Cl` the figure was > 55.6 µg/mL; with `CC(C)(C)C(=O)Nc1cccc(S(=O)(=O)NC2=NCCC2)c1`, > 48.5 µg/mL; with `O=C(Cc1ccccc1Cl)Nc1nc2ccccc2[nH]1`, 2.6 µg/mL (≈ 9.1 µM).
Turning to `Nc1nc(SCC(=O)NC2CCCC2)[nH]c(=O)c1NC(=O)c1cccs1`, the solubility (kinetic) turned out to be 4.4 µg/mL (≈ 11.2 µM).
For `O=C1CCC(C(=O)NCc2ccc3c(c2)OCO3)N1` (stereo unspecified) the value was > 39.3 µg/mL; for `CC(=O)c1ccc(OC(C)C(=O)Nc2cccc(S(=O)(=O)NCc3ccco3)c2)cc1` (stereo unspecified), > 66.4 µg/mL; for `CC(C)CC1NC(=O)N(CC(=O)NC2CCCc3ccccc32)C1=O` (stereo unspecified), 45.7 µg/mL (≈ 133 µM).
For `N#C/C(=C\c1ccc(Cl)cc1)C(=O)NC1CC1` the value was 5 µg/mL (≈ 20.3 µM).
